“And” between values parts separate entries of the source, which are not always exact repeats. Equal entries are not always repeated. Where two headings read alike, the source gives them in different places.
Legend:
[1] = molecular target: LbDHODH (Leishmania braziliensis, UniProt E9AI53); assay: biochemical; conditions: for IC50: LbDHODH
How it was run: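 Screened at 100 μM with and without 4-h enzyme preincubation; DCIP reduction during DHO oxidation read at 610 nm every 3 s for 60 s in 50 mM Tris pH 8.15, 150 mM KCl, 0.1% Triton X-100, triplicate, 5% DMSO control. kinact/KI taken as slope of kobs versus inhibitor concentration (initial linear region).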

[2] = molecular target: T1, HsDHODH (Homo sapiens, UniProt Q02127); assay: Selectivity assay: HsDHODH single-dose inhibition (DCIP reduction); assay type: biochemical
T1 construct: made in house
How it was run: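 Recombinant human DHODH at 20 nM final, purified by Ni-NTA affinity, tested at a single compound concentration in triplicate. DCIP reduction followed at 610 nm every 3 s over 60 s. Velocity expressed as % activity relative to enzyme control without compound.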

[3] = test system: Leishmania braziliensis promastigotes; assay: Leishmanicidal activity, promastigote growth (SYBR Green, 72 h); assay type: cell-based, Leishmania (V.) braziliensis (MHOM/BR/1975/M2904); conditions: Leishmania braziliensis, L. braziliensis promastigotes, max 200 μM
How it was run: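 Promastigotes seeded at 4 × 10^6 parasites/mL with compounds in decreasing concentrations up to 200 μM, 0.5% DMSO final, 72 h.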

[4] = Cell viability / cytotoxicity assay (PrestoBlue, 72 h); assay type: cell-based; conditions: human; THP-1 cell line, 72 h, max 200 μM; read-out: CC50
How it was run: (§1)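 PMA-differentiated THP-1 cells (150 ng/mL PMA, 48 h; then 24 h in fresh medium) were exposed to compounds in serial dilution from 200 μM for 72 h at 37 °C, 5% CO2. Viability was read by PrestoBlue fluorescence (ex 560/em 590 nm) after 2 h.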

[5] = test system: THP-1 cells; assay: as above; assay type: cell-based; conditions: THP-1 cell line, 72 h, max 200 μM
How it was run: as §1

[6] = for Raw data: analyte peak area, T=0: 0 min; for Raw data: analyte peak area, T=0 / Raw data: analyte peak area, T=5 / Raw data: analyte peak area, T=10 / Raw data: analyte peak area, T=20 / Raw data: analyte peak area, T=30 / Raw data: analyte peak area, T=60: raw LC-MS area; for Raw data: analyte peak area, T=5: 5 min; for Raw data: analyte peak area, T=10: 10 min; for Raw data: analyte peak area, T=20: 20 min; for Raw data: analyte peak area, T=30: 30 min; for Raw data: analyte peak area, T=60: 60 min
[7] = in vitro; conditions: liver microsomes; for microsomal CLint at 1 μM / remaining at 5 min, 1 μM: male, CD1, mouse; for remaining at 5 min, 1 μM / remaining at 10 min, 1 µM / remaining at 20 min, 1 µM / remaining at 0.5 h, 1 µM / remaining at 1 h, 1 µM: pH 7.4, % Remaining; for remaining at 5 min, 1 μM: T=5 min; for remaining at 10 min, 1 µM / remaining at 20 min, 1 µM / remaining at 0.5 h, 1 µM / remaining at 1 h, 1 µM: mouse; for remaining at 10 min, 1 µM: T=10 min; for remaining at 20 min, 1 µM: T=20 min; for remaining at 0.5 h, 1 µM: T=30 min, 30 min; for remaining at 1 h, 1 µM: T=60 min, 60 min
[8] = in vitro; conditions: mouse, microsomes, pH 7.4, % Remaining, T=60 NCF
[9] = Mouse liver microsome stability in the absence of cofactors (NCF); conditions: mouse liver microsomes, 60 min, no cofactor (NCF), raw LC-MS area
[10] = 0 h, pH 8.15, read-out: LbDHODH Activity±SD (%)
[11] = 4 h, pH 8.15, read-out: LbDHODH Activity±SD (%)
[12] = read-out: Single dose (0h) % activity
[13] = read-out: Single dose (4h) % activity
[14] = mouse liver microsomes, replicate 1 (left block)
[15] = mouse liver microsomes, replicate 2 (right block)
[16] = n=1, mouse liver microsomes, 1 µM, n=1
[17] = n=2, mouse liver microsomes, 1 µM, n=2

Chain of LbDHODH (E9AI53 entry or part of it): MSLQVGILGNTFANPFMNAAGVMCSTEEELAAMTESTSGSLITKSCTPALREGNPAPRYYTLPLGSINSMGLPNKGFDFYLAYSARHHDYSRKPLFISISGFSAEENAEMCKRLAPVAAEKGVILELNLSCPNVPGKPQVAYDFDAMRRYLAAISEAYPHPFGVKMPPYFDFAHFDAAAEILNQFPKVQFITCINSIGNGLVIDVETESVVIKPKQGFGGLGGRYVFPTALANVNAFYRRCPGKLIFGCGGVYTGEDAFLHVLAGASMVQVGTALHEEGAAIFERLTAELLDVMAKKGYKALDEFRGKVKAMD
T1 sequence (Q02127 whole entry): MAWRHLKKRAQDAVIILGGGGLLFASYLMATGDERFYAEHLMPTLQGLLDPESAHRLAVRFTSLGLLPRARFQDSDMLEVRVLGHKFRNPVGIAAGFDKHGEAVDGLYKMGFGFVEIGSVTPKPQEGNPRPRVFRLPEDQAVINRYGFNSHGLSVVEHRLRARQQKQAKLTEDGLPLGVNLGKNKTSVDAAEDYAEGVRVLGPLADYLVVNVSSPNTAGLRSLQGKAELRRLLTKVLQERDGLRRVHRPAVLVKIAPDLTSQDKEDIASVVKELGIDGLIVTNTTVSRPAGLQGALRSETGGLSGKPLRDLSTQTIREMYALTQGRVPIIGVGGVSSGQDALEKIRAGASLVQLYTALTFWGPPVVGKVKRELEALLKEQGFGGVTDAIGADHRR

Compound: O=C1NC(=O)C(=Cc2ccc(-c3ccccc3)cc2)C(=O)N1 [2f, 5-([1,1′-Biphenyl]-4-ylmethylene)pyrimidine-2,4,6(1H,3H,5H)-trione]
- activity at 0.024414 µM [1, 10]: 97 ± 2%
- activity at 0.048828 µM [1, 10]: 93 ± 2%
- activity at 0.0976562 µM [1, 10]: 98 ± 2%
- activity at 0.195312 µM [1, 10]: 97 ± 2%
- activity at 0.390625 µM [1, 10]: 91 ± 2%
- activity at 0.78125 µM [1, 10]: 94 ± 2%
- activity at 1.5625 µM [1, 10]: 100 ± 2%
- activity at 3.125 µM [1, 10]: 94 ± 2%
- activity at 6.25 µM [1, 10]: 96 ± 2%
- activity at 12.5 µM [1, 10]: 86 ± 2%
- activity at 25 µM [1, 10]: 83 ± 2%
- activity at 50 µM [1, 10]: 71 ± 2%
- activity at 100 µM [1, 10]: 62 ± 2%
- activity at 200 µM [1, 10]: 43 ± 1%
- activity at 0.024414 µM [1, 11]: 103 ± 3%
- activity at 0.048828 µM [1, 11]: 104 ± 3%
- activity at 0.0976562 µM [1, 11]: 104 ± 3%
- activity at 0.195312 µM [1, 11]: 95.5 ± 2%
- activity at 0.390625 µM [1, 11]: 95.9 ± 2%
- activity at 0.78125 µM [1, 11]: 85.6 ± 2%
- activity at 1.5625 µM [1, 11]: 83.3 ± 2%
- activity at 3.125 µM [1, 11]: 73.6 ± 2%
- activity at 6.25 µM [1, 11]: 53 ± 1%
- activity at 12.5 µM [1, 11]: 41 ± 1%
- activity at 25 µM [1, 11]: 25.2 ± 0.6%
- activity at 50 µM [1, 11]: 10 ± 0.2%
- activity at 100 µM [1, 11]: 3.8 ± 0.1%
- activity at 200 µM [1, 11]: 0.95 ± 0.02%
- IC50 ([1]; IC50 0 h, without preincubation): 160 ± 10 µM
- IC50 ([1]; IC50 4 h, 4-h preincubation): 7.7 ± 0.3 µM
- activity at 100 µM [1, 12]: 62 ± 2%
- activity at 100 µM [1, 13]: 3.8 ± 0.1%
- inhibition at 100 µM ([1]; read-out: enzyme inhibition): 96.2%
- activity at 100 µM [2, 12]: 103 ± 12%
- activity at 100 µM [2, 13]: 78 ± 8%
- EC50 [3]: 19 ± 14 µM
- CC50 at 72 h [4]: 12 ± 3 µM
- CC50 [5]: strong cytotoxicity

Compound: O=C(O)Cc1ccccc1Nc1c(Cl)cccc1Cl [Diclofenac]
- Calculated T-half (min), Average ([6]; mouse liver microsomes (CD1 male), 0.4 mg/ml protein, test conc 1 µM, average of n=1 and n=2): 59.3 min
- Calculated T-half (min), n=1 ([6]; mouse liver microsomes (CD1 male), 0.4 mg/ml protein, test conc 1 µM, replicate n=1): 62.0 min and 61.99 min
- Calculated T-half (min), n=2 ([6]; mouse liver microsomes (CD1 male), 0.4 mg/ml protein, test conc 1 µM, replicate n=2): 56.6 min and 56.57 min
- Raw data: analyte peak area, T=0 [6, 14]: 17523
- Raw data: analyte peak area, T=0 [6, 15]: 19401
- Calculated CLint, app (µl/min/mg), n=1 ([6]; mouse liver microsomes, 0.4 mg/ml protein, 1 µM, replicate n=1): 27.95 µL/min/mg
- Calculated CLint, app (µl/min/mg), n=2 ([6]; mouse liver microsomes, 0.4 mg/ml protein, 1 µM, replicate n=2): 30.63 µL/min/mg
- Modified T-half (min), Average ([6]; mouse liver microsomes, 0.4 mg/ml, 1 µM, average, limited to T Half range 3.00 - […]): 59.3 min
- Raw data: analyte peak area, T=5 [6, 14]: 17080
- Raw data: analyte peak area, T=5 [6, 15]: 16757
- Raw data: analyte peak area, T=10 [6, 14]: 15901
- Raw data: analyte peak area, T=10 [6, 15]: 17016
- Raw data: analyte peak area, T=20 [6, 14]: 13027
- Raw data: analyte peak area, T=20 [6, 15]: 13336
- Raw data: analyte peak area, T=30 [6, 14]: 11583
- Raw data: analyte peak area, T=30 [6, 15]: 11936
- Raw data: analyte peak area, T=60 [6, 14]: 10413
- Raw data: analyte peak area, T=60 [6, 15]: 8808
- microsomal CLint at 1 μM ([7]; pH 7.4): 27.9 µL/min/mg
- remaining at 5 min, 1 μM [7, 16]: 94%
- remaining at 5 min, 1 μM [7, 17]: 89.2%
- microsomal CLint at 1 μM ([7]; pH 7.4, Calculated CLint, app (µl/min/mg), Average, mouse liver microsomes, 0.4 mg/ml protein, 1 µM): 29.3 µL/min/mg
- microsomal CLint at 1 μM ([7]; pH 7.4, Calculated CLint, app (µl/min/mg), n=1, mouse liver microsomes, 0.4 mg/ml protein, 1 µM, replicate n=1): 27.9 µL/min/mg
- microsomal CLint at 1 μM ([7]; pH 7.4, Calculated CLint, app (µl/min/mg), n=2, mouse liver microsomes, 0.4 mg/ml protein, 1 µM, replicate n=2): 30.6 µL/min/mg
- remaining at 10 min, 1 µM [7, 16]: 86.6%
- remaining at 10 min, 1 µM [7, 17]: 87%
- remaining at 20 min, 1 µM [7, 16]: 79.5%
- remaining at 20 min, 1 µM [7, 17]: 79%
- remaining at 0.5 h, 1 µM [7, 16]: 62%
- remaining at 0.5 h, 1 µM [7, 17]: 63%
- remaining at 1 h, 1 µM [7, 16]: 52.3%
- remaining at 1 h, 1 µM [7, 17]: 47.8%
- remaining at 1 h, 1 µM ([8]; n=1): 98.3%
- remaining at 1 h, 1 µM ([8]; n=2): 88.5%
- Raw data: analyte peak area, T=60 NCF ([9]; replicate 1 (left block)): 17862
- Raw data: analyte peak area, T=60 NCF ([9]; replicate 2 (right block)): 19654

— publication PMC12481576, “Barbituric Acid Derivatives as Covalent Inhibitors of Leishmania braziliensis Dihydroorotate Dehydrogenase” (Journal of Medicinal Chemistry, 2025)
